The text below walks through data of patent US11318126B2, “Composition for activating neurogenesis” (KYOTO UNIVERSITY, priority 2016, dated 2022).

The test system of data set [1] is neural stem cells present in the dentate gyrus of the hippocampus. Put plainly: neurogenesis in the dentate gyrus of the hippocampus after 10-day administration. The class given is in vivo, rodent. The note with it: versus solvent administered group. The procedure:
After 10-day long administration of Compound 4 to a rodent, BrdU was administered thereto, and the number of proliferating cells was quantitatively evaluated. […] In FIGS. 5B and 5C, “Solvent” indicates the results from adding no compound. FIG. 5A is a representative images of thin sections of the dentate gyrus of the hippocampus, and the image of Dapi staining (nucleus staining), the image of doublecortin (DCX) staining, and the image of BrdU staining are shown in the order from top to bottom. FIG. 5B is an example of a graph showing the number of BrdU-positive cells in the dentate gyrus of the hippocampus. FIG. 5C is an example of a graph showing the number of immature neurons in the dentate gyrus of the hippocampus as a relative value determined based on the result from the solvent sample taken as 1.

Data set [2] deals with T1, DYRK1A (Homo sapiens, UniProt Q13627). Briefly: in-vitro kinase assay against DYRK1A. Format: biochemical. The note with it: for pIC50: DYRK peptide as substrate, 10 μM ATP. The procedure: The inhibitory activity of Compounds 4 and 10 against DYRK1A was examined through in-vitro kinase assay (in-vitro kinase analysis).
The inhibitory activity of Compounds 4 and 10 against DYRK1A was examined in the presence of DYRK1A protein using a DYRK peptide as a substrate under the condition of 10 μM ATP.

The test system of the next data set is Down syndrome model mice. Put plainly: learning and memory tests (Y maze, Barnes maze, fear conditioning) after prenatal administration. Format: in vivo, mouse. The note with it: 10 mg/kg oral once a day to pregnant mice from tenth day of fetal life until birth; tested at 8 weeks. The procedure: Compound 4 (10 mg/kg) or a solvent was orally administered to pregnant mice carrying Down syndrome model mice once a day from the tenth day of fetal life until birth. After birth, at the age of 8 weeks, three types of tests (A. Y maze test for spontaneous alteration behavior, B. Barnes maze test for spatial memory, and C. fear conditioning test) were performed successively. FIGS. 8A to 8C show the results. In FIGS. 8A to 8C, “Solvent” indicates the results from adding no compound.

Data set [3] deals with neural stem cells isolated Down syndrome model mice (Ts1Cje). Briefly: proliferation (BrdU-positive ratio) of neural stem cells from Down syndrome model mice. The class given is cell-based, mouse. To be noted: Ts1Cje versus wild-type. On the procedure: Neural stem cells were prepared from wild-type mice and Down syndrome model mice (Ts1Cje: the same applies hereinafter), and the effect of Compound 4 on the proliferation of neural stem cells isolated Down syndrome model mice was examined. […] In FIG. 6, “Solvent” indicates the results from no adding compound.

Data set [4] has as its system fibroblasts derived from human skin. Put plainly: flow cytometry cell cycle analysis of fibroblasts derived from human skin. The note with it: 48 hours treatment. The class given is cell-based. On the procedure: Next, fibroblasts derived from human skin were treated with a solvent or Compound 4 for 48 hours, and the cell cycle was analyzed through flow cytometry. […] It is considered that this is because Compound 4 stabilized cyclin D1 and thus stimulated the progression of the cell cycle from the G1 phase to the subsequent S phase and G2/M phase.

The test system of data set [5] is cyclin D1. Briefly: Western blotting of cyclin D1 expression in cultured mouse neural stem cells. Format: cell-based. To be noted: relative to control. On the procedure:
Mouse neural stem cells were treated with Compound 4, 6, or 10, and the expression level of cyclin D1, which positively controls cell proliferation, was examined through Western blotting. FIGS. 4A and 4B show the results. In FIGS. 4A and 4B, “Control” indicates the results from adding no compounds, and “Solvent” indicates dimethyl sulfoxide (DMSO).

A further data set deals with Mouse neural stem cells. Put plainly: BrdU uptake in cultured mouse neural stem cells (Arrayscan). The note with it: for incorporation of BrdU into neural stem cells (ratio of BrdU-positive cells relative to control): 1.25 μM, 2.5 μM, or 5 μM. Format: cell-based. The procedure: Mouse neural stem cells were treated with Compound 4 or 10, and then neural stem cell proliferating activity was examined using, as an index, uptake of 5-bromo-2′-deoxyuridine (BrdU), which is a nucleoside analog to be used as a proliferation index.
Specifically, isolated neural stem cells were cultured in the presence of BrdU and Compound 4 or 10 at a concentration of 1.25 μM, 2.5 μM, or 5 μM, so that proliferating cells were labeled. After the cells were fixed, BrdU was detected by an anti-BrdU antibody, and the ratio of proliferating cells that had incorporated the BrdU was quantitatively analyzed using Arrayscan (Thermo Scientific). […] In FIG. 3, “Control” indicates the results from adding no compounds, and “Solvent” indicates dimethyl sulfoxide (DMSO).

The test system of data set [6] is Down syndrome model mice (fetus). Put plainly: thickness of the cerebral cortex of Down syndrome model fetuses after oral administration to pregnant mice. Format: in vivo, mouse. To be noted: tenth to fifteenth day of fetal life. The procedure: Moreover, Compound 4 was orally administered to pregnant mice carrying Down syndrome model mice from the tenth day to fifteenth day of fetal life, and the thickness of the cerebral cortex was measured at the fifteenth day of fetal life. […] In FIGS. 7A and 7B, “Solvent” indicates the results from adding no compound.

Data set [7] relates to Down syndrome model mice (Ts1Cje). Briefly: neurogenesis in the dentate gyrus of the hippocampus of Down syndrome model mice. The class given is in vivo, mouse. The note with it: 8-week old Down syndrome model mice. The procedure: First, a solvent or Compound 4 was administered to 8-week old wild-type mice and 8-week old Down syndrome model mice, and the effect on neurogenesis in the dentate gyrus of the hippocampus was examined.

The subject of data set [8] is zebrafish spinal cord injury. Put plainly: zebrafish spinal cord injury model, migration distance by behavior analysis. Format: in vivo. To be noted: in breeding water, sixth to eighth day after fertilization. From the text:
On the fifth day after fertilization, the zebrafish spinal cord was injured using an ophthalmic scalpel, and the zebrafish was bred in breeding water containing Compound 4 until the eighth day after fertilization.

Data set [9] relates to cyclin D1. Briefly: Western blotting of cyclin D1 expression in HEK293 cells over time. To be noted: treated over time. The class given is cell-based. The procedure:
HEK293 cells were treated with Compound 4 or 10 over time, and the expression level of cyclin D1 was examined through Western blotting.

Data set [10] has as its target T1, DYRK1A. Put plainly: Western blotting of tau protein phosphorylation (threonine 212) in cultured cells expressing tau protein and DYRK1A protein. Format: cell-based. To be noted: 0.3 μM, 1 μM, 3 μM, or 10 μM; antibody to phosphorylated threonine 212 of tau. The procedure:
Tau protein, which is a substrate of a target kinase, was overexpressed in cells in the presence of Compound 4 or 10 at a concentration of 0.3 μM, 1 μM, 3 μM, or 10 μM, and the inhibitory activity of Compounds 4 and 10 was examined using the phosphorylation of the tau protein as an index.
FIG. 2 is an example of the result of Western blotting analysis of cultured cells in which the expression of both tau protein and DYRK1A protein was induced in the presence of Compound 4 or 10 at a concentration of 0.3 μM, 1 μM, 3 μM, or 10 μM, using an antibody that specifically recognizes the phosphorylated threonine residue at 212-position of tau protein was used to analyze.

For data set [11], the system named is Facial nerve palsy model mice. Briefly: facial nerve palsy model, paralysis scores. The class given is in vivo, ICR mouse. To be noted: 10 mg/kg every day from an hour before the operation. On the procedure:
A facial nerve trunk (3 mm) of a rodent (ICR mouse; 6 to 8 weeks old) was extracted and compressed using a Mosquito forceps with a width of 1 mm for 30 seconds. Facial nerve palsy model mice were thus produced. Compound 4 (10 mg/kg) was administered every day from an hour before the operation (day 0), and paralysis scores relating to nictitation (“no eye-opening” to “cured”), a nose (“extended” to “cured”), and whiskers (“no movement” to “cured”) were evaluated according to four levels. […] In FIG. 9A, “Solvent” indicates the results from adding no compound.

pIC50: −log10 of the molar value.

Take `c1cc(-c2ccc3[nH]ncc3c2)c2cccnc2c1` [Compound 1, 5-(5-Quinolyl)indazole]: the melting point is 255 °C (dec.).
In the case of `c1cncc(-c2ccc3[nH]ncc3c2)c1` [Compound 4], in data set [1], the “number of immature neurons in the dentate gyrus of the hippocampus” value is reported as “significantly larger” and the “number of proliferating cells (BrdU-positive) in the dentate gyrus of the hippocampus” value is “significantly larger”. Further, the pIC50 against DYRK1A [2] is 7.25. Besides, in the data set with Down syndrome model mice, the “cognitive function (Y maze, Barnes maze, fear conditioning tests)” value is “improved the cognition function”. Besides, the “ratio of BrdU-positive cells in neural stem cells from Down syndrome model mice” value in data set [3] is “compensated for the reduced proliferation”. Besides, in [4], the “ratio of cell in the G2/M phase of the cell cycle” value is “increased” and the “ratio of cells in the G1 phase of the cell cycle” value was “decreased”. For the same compound, the “expression level of cyclin D1” value in the data set on cyclin D1 [5] was “significantly high”. In addition, in the data set with Mouse neural stem cells, the “incorporation of BrdU into neural stem cells (ratio of BrdU-positive cells relative to control)” value is given as “increased the amount of incorporation of BrdU”. Moreover, in data set [6], the “thickness of cortical layers” value was “compensated for the cerebral cortex with a reduced thickness”. In addition, the “number of proliferating cells in dentate gyrus of the hippocampus” value in [7] is given as “compensated for the reduced neurogenesis”. Also, the “migration distance after spinal cord injury” value in data set [8] is reported as “migration distance was recovered”. Besides, in the data set with cyclin D1 [9], the “protein level of cyclin D1” value is recorded as “increased (i.e. the cyclin D1 was stabilized) in a treatment time dependent manner”. For the same compound, the “inhibitory effect against the phosphorylation of tau protein” value (from here on “inhibitory effect”) on DYRK1A [10] was “exhibited a high inhibitory effect”. Also, in data set [11], the “paralysis scores (nictitation, nose, whiskers)” value is “tended to promote recovery”.
For the compound `c1ccc2c(-c3ccc4[nH]ncc4c3)cncc2c1` [Compound 6], the “inhibitory activity against DYRK1A” value against DYRK1A [2] (same experiment as Compounds 4 and 10) is “lower than that of Compounds 4 and 10”. In addition, in the data set on cyclin D1 [5], the “expression level of cyclin D1” value is given as “significantly high”. Besides, the “proliferation of cultured neural stem cells” value in the data set on Mouse neural stem cells (2.5 μM and 5 μM) is on record as “promoted the proliferation of cultured neural stem cells”. Also, the “inhibitory effect” value on DYRK1A [10] is “showed the same tendency as Compounds 4 and 10”.
Turning to `c1cncc(Nc2cccc3ncccc23)c1` [Compound 8, 5-(3-Pyridylamino)quinoline], the melting point was 180 °C (dec.).
Take `c1cnc2ccc(-c3ccncc3)cc2c1` [Compound 10]: the negative logarithm of the IC50 (pIC50) against DYRK1A [2] is 7.22. The “expression level of cyclin D1” value with cyclin D1 [5] is listed as “significantly high”. Moreover, the “incorporation of BrdU into neural stem cells (ratio of BrdU-positive cells relative to control)” value with Mouse neural stem cells was “increased the amount of incorporation of BrdU”. For the same compound, in the data set with cyclin D1 [9], the “protein level of cyclin D1” value is reported as “increased (i.e. the cyclin D1 was stabilized) in a treatment time dependent manner”. For the same compound, the “inhibitory effect” value against DYRK1A [10] is listed as “exhibited a high inhibitory effect”.
